Here are results for 3 compounds from patent US4985417A, “Treatment of glaucoma” (priority 1989, dated 1991).

Where a name gives a salt, the structure may show the parent alone.

The target of one series is carbonic anhydrase. Nature of the series: carbonic anhydrase inhibition (concentration for 50% inhibition). It counts as biochemical. The conditions noted are these: carbonic anhydrase inhibitory properties; read-out: Conc. for 50% Inhibition.
For series [1] the following is noted: cited from earlier work.

Take `NS(=O)(=O)c1ccc(NC(=O)[C@@H]2CCCN2)cc1` [4-(L-prolylamino)benzenesulfonamide hydrochloride]: the IC50 at carbonic anhydrase is 94.9 nM. In the case of `CC(=O)N1CCC[C@H]1C(=O)Nc1ccc(S(N)(=O)=O)cc1` [4-(N-acetyl-L-prolyl-amino)benzenesulfonamide], the IC50 at carbonic anhydrase stood at 67.5 nM. As to `CC(=O)Nc1nnc(S(N)(=O)=O)s1` [Acetazolamide, acetazolamide], the water solubility entry in series [1] is listed as “about 0.01 % w/v”.
